Results published in patent US20240190865A1, “T-TYPE CALCIUM CHANNEL ANTAGONISTS AND USES THEREOF” (THE BOARD OF TRUSTEES OF THE LELAND STANFORD JUNIOR …, priority 2021, published 2024).

Each compound was assayed against Cav3.2 (Homo sapiens (Human), UniProt O95180) (assay: In vitro patch clamp assay (SyncroPatch 384PE)). Conditions: HEK293 cells.
Format: cell-based
Experimental: Patch clamp assays were performed at Charles River. HEK293 cells were cultured in Dulbecco's Modified Eagle Medium/Nutrient Mixture F-12 (D-MEM/F-12) supplemented with 10% fetal bovine serum, 100 U/mL penicillin G sodium, 100 μg/mL streptomycin sulfate and 500 μg/mL G418. Before testing, cells in culture dishes were washed twice with Hank's Balanced Salt Solution, treated with Accutase™ and re-suspended in the culture media (˜20×10^6 cells in 20 mL). Cells in suspension were allowed to recover for 10 minutes in tissue culture incubator set at 37° C. in a humidified 95% air: 5% CO2 atmosphere. Immediately before use in the SyncroPatch 384PE system (SP384PE), the cells were washed twice in extracellular buffer (HB-PS) to remove the culture medium and re-suspended in 20 mL of HB-PS. Extracellular buffer was loaded into the wells of Nanion 384-well Patch Clamp (NPC-384, 4×M) chip (60 μL per well). Then, cell suspension was pipetted into the wells (20 μL per well) of the chip. After establishment of the whole-cell configuration, membrane currents were recorded using patch clamp amplifier in the SP384PE system.

Sequence of Cav3.2 (O95180 whole entry): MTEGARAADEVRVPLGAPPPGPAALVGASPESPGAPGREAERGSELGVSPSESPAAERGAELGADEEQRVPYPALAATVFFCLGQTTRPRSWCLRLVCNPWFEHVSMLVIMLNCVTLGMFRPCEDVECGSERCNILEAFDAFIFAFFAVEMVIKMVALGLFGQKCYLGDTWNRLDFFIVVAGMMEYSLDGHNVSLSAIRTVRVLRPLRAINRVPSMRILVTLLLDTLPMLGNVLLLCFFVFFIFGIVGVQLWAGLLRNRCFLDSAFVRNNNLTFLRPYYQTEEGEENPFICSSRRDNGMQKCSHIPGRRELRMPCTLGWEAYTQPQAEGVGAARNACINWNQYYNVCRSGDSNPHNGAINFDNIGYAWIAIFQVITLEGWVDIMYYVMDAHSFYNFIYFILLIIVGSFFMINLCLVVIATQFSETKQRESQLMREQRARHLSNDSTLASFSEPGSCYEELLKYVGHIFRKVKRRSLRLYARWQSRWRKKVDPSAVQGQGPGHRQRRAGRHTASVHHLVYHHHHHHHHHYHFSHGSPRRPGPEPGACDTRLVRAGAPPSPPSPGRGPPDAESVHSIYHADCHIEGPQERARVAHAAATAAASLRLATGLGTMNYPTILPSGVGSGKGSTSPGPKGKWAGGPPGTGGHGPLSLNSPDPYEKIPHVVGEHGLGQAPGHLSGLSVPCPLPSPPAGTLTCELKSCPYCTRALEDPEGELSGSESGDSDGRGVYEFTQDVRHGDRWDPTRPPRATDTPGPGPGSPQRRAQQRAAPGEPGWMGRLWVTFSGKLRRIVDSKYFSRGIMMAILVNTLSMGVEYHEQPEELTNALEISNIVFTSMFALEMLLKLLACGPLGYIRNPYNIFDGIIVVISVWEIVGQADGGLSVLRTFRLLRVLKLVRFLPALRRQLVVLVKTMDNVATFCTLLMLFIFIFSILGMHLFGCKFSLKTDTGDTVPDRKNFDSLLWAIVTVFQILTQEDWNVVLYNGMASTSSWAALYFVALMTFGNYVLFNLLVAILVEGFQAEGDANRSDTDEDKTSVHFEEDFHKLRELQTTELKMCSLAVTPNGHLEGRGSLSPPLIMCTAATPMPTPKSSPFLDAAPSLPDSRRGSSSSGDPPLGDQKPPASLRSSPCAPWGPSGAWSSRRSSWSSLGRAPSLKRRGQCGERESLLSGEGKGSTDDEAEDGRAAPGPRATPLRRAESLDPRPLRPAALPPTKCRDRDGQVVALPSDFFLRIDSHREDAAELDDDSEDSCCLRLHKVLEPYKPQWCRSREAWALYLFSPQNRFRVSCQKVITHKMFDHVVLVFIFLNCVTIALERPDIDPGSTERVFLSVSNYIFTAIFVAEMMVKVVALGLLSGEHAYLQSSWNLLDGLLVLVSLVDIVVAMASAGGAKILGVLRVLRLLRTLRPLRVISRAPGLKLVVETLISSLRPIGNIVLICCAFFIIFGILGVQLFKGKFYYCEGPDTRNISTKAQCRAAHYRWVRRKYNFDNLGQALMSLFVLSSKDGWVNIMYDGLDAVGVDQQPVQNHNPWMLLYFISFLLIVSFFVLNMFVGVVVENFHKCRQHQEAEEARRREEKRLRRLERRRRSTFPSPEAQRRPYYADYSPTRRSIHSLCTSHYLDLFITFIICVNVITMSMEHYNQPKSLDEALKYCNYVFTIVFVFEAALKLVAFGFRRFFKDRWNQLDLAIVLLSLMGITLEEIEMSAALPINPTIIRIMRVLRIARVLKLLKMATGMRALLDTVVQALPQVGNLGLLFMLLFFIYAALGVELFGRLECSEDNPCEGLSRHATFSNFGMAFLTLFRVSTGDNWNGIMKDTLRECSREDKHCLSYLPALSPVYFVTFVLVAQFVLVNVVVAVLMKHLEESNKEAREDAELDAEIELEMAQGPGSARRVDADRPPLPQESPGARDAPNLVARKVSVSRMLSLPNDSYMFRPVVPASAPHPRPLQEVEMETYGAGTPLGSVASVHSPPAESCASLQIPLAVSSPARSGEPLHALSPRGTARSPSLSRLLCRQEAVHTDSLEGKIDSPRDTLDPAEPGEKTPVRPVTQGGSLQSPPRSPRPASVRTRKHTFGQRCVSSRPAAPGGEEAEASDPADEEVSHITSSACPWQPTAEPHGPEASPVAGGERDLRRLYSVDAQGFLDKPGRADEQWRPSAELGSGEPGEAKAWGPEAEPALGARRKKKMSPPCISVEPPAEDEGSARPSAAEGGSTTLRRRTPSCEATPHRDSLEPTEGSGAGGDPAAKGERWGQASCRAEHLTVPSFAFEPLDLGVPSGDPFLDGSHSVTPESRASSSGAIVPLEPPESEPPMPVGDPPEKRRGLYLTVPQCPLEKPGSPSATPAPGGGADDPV

IC50 [nM]	Compound
7030	C[C@@H](NC(=O)Cc1ccc(C2(C(F)(F)F)CC2)nc1)c1cc2cnn(CC(F)(F)F)c2cn1 [Example 26, (R)—N-(1-(1-(2,2,2-trifluoroethyl)-1H-pyrazolo[3,4-c]pyridin-5-yl)ethyl)-2-(6-(1-(trifluoromethyl)cyclopropyl)pyridin-3-yl)acetamide]
333	C[C@@H](NC(=O)Cc1ccc(C2CC2)cc1)c1cc2nnn(CC(F)(F)F)c2cn1 [Example 24, (R)-2-(4-cyclopropylphenyl)-N-(1-(3-(2,2,2-trifluoroethyl)-3H-[1,2,3]triazolo[4,5-c]pyridin-6-yl)ethyl)acetamide]
411	C[C@@H](NC(=O)Cc1ccc(C(F)(F)F)cc1)c1cc2ccn(CC(F)(F)F)c2cn1 [Example 51, (R)—N-(1-(1-(2,2,2-trifluoroethyl)-1H-pyrrolo[2,3-c]pyridin-5-yl)ethyl)-2-(4-(trifluoromethyl)phenyl)acetamide]
113	CC[C@@H](NC(=O)Cc1ccc(C(F)(F)F)cc1)c1cc2cnn(CC(F)(F)F)c2cn1 [Example 45, (R)—N-(1-(1-(2,2,2-trifluoroethyl)-1H-pyrazolo[3,4-c]pyridin-5-yl)propyl)-2-(4-(trifluoromethyl)phenyl)acetamide]
710	CC(C)c1ccc(CC(=O)N[C@H](C)c2cc3cnn(C)c3nn2)cc1 [Example 13, (R)-2-(4-isopropylphenyl)-N-(1-(1-methyl-1H-pyrazolo[3,4-c]pyridazin-5-yl)ethyl)acetamide]
85	CC(C)c1ccc(CC(=O)N[C@H](C)c2cc3cnn(CC(C)(F)F)c3cn2)cc1 [Example 14, (R)—N-(1-(1-(2,2-difluoropropyl)-1H-pyrazolo[3,4-c]pyridin-5-yl)ethyl)-2-(4-isopropylphenyl)acetamide]
126	CCn1ncc2cc([C@@H](C)NC(=O)Cc3ccc(C(C)C)cc3)ncc21 [Example 8, (R)—N-(1-(1-ethyl-1H-pyrazolo[3,4-c]pyridin-5-yl)ethyl)-2-(4-isopropylphenyl)acetamide]
8270	Cc1nn(CC(F)(F)F)c2cnc([C@@H](C)NC(=O)Cc3ccc(C4CC4)cc3)cc12 [Example 33, (R)-2-(4-cyclopropylphenyl)-N-(1-(3-methyl-1-(2,2,2-trifluoroethyl)-1H-pyrazolo[3,4-c]pyridin-5-yl)ethyl)acetamide]
4020	C[C@@H](NC(=O)Cc1ccc(C2CC2)nc1)c1cc2cnn(-c3ccc(F)cc3)c2cn1 [Example 23, (R)-2-(6-cyclopropylnyridin-3-yl)-N-(1-(1-(4-fluorophenyl)-1H-pyrazolo[3,4-c]pyridin-5-yl)ethyl)acetamide]
505	C[C@@H](NC(=O)Cc1ccc(C2CC2(F)F)cc1)c1cc2cnn(CC(F)(F)F)c2cn1 (single isomer, unassigned) [Example 31]
1220	Cc1noc2cc([C@@H](C)NC(=O)Cc3ccc(C(C)C)cc3)ncc12 [Example 5, (R)-2-(4-isopropylphenyl)-N-(1-(3-methylisoxazolo[4,5-c]pyridin-6-yl)ethyl)acetamide]
7840	Cc1noc2cnc([C@@H](C)NC(=O)Cc3ccc(C(C)C)cc3)cc12 [Example 6, (R)-2-(4-isopropylphenyl)-N-(1-(3-methylisoxazolo[5,4-c]pyridin-5-yl)ethyl)acetamide]
37	CC(C)c1ccc(CC(=O)N[C@H](C)c2ccc(OCC(F)(F)F)cn2)cc1 [Example 56, 2-(4-isopropylphenyl)-N-[(1R)-1-(5-(2,2,2-trifluoroethoxy)pyridin-2-yl)ethyl]acetamide]
335	[2H][C@](C)(NC(=O)Cc1ccc(C(F)(F)F)cc1)c1cc2cnn(CC(F)(F)F)c2cn1 [Example 55, (R)—N-(1-(1-(2,2,2-trifluoroethyl)-1H-pyrazolo[3,4-c]pyridin-5-yl)ethyl-1-d)-2-(4-(trifluoromethyl)phenyl)acetamide]
4900	C[C@@H](NC(=O)Cc1ccc(C2(C(F)(F)F)CC2)nc1)c1ncc(Cl)s1 [Example 58, (R)—N-(1-(5-chlorothiazol-2-yl)ethyl)-2-(6-(1-(trifluoromethyl)cyclopropyl)pyridin-3-yl)acetamide]
6450	CC(C)c1ccc(CC(=O)N[C@H](C)c2cc3cn(C)nc3cn2)cc1 [Example 2, (R)-2-(4-isopropylphenyl)-N-(1-(2-methyl-2H-pyrazolo[3,4-c]pyridin-5-yl)ethyl)acetamide]
2130	C[C@@H](NC(=O)Cc1cnc(C(C)(F)F)c(Cl)c1)c1cc2cnn(CC(F)(F)F)c2cn1 [Example 35, (R)-2-(5-chloro-6-(1,1-difluoroethyl)pyridin-3-yl)-N-(1-(1-(2,2,2-trifluoroethyl)-1H-pyrazolo[3,4-c]pyridin-5-yl)ethyl)acetamide]

IC50 [nM]	Compound
1270	C[C@@H](NC(=O)Cc1ccc(C(C)(F)F)nc1)c1cc2cnn(CC(F)(F)F)c2cn1 [Example 16, (R)-2-(6-(1,1-difluoroethyl)pyridin-3-yl)-N-(1-(1-(2,2,2-trifluoroethyl)-1H-pyrazolo[3,4-c]pyridin-5-yl)ethyl)acetamide]
647	C[C@@H](NC(=O)Cc1ccc(C2(C(F)(F)F)CC2)cc1)c1cc2cnn(C)c2cn1 [Example 12, (R)—N-(1-(1-methyl-1H-pyrazolo[3,4-c]pyridin-5-yl)ethyl)-2-(4-(1-(trifluoromethyl)cyclopropyl)phenyl)acetamide]
132	C[C@@H](NC(=O)Cc1ccc(C(C)(F)F)cc1)c1cc2cnn(CC(F)(F)F)c2cn1 [Example 19, (R)-2-(4-(1,1-difluoroethyl)phenyl)-N-(1-(1-(2,2,2-trifluoroethyl)-1H-Pyrazolo[3,4-c]pyridin-5-yl)ethyl)acetamide]
727	C[C@@H](NC(=O)Cc1ccc(C(C)(F)F)cc1)c1cc2cnn(CC(C)(F)F)c2cn1 [Example 41, (R)-2-(4-(1,1-difluoroethyl)phenyl)-N-(1-(1-(2,2-difluoropropyl)-1H-pyrazolo[3,4-c]pyridin-5-yl)ethyl)acetamide]
475	C[C@@H](NC(=O)Cc1ccc(C2CC2(F)F)cc1)c1cc2cnn(CC(F)(F)F)c2cn1 (single isomer, unassigned) [Example 30]
> 10000	CC(C)c1ccc(CC(=O)N[C@H](C)c2cc3c(cn2)cnn3C)cc1 [Example 3, (R)-2-(4-isopropylphenyl)-N-(1-(1-methyl-1H-pyrazolo[4,3-c]pyridin-6-yl)ethyl)acetamide]
110	CCCn1ncc2cc([C@@H](C)NC(=O)Cc3ccc(C(C)C)cc3)ncc21 [Example 7, (R)-2-(4-isopropylphenyl)-N-(1-(1-propyl-1H-pyrazolo[3,4-c]pyridin-5-yl)ethyl)acetamide]
> 10000	CC(C)c1ccc(CC(=O)N[C@H](C)c2cc3nn(C)cc3cn2)cc1 [Example 4, (R)-2-(4-isopropylphenyl)-N-(1-(2-methyl-2H-pyrazolo[4,3-c]pyridin-6-yl)ethyl)acetamide]
9420	Cc1nn(CC(F)(F)F)c2cnc([C@@H](C)NC(=O)Cc3ccc(C(C)C)cc3)cc12 [Example 32, (R)-2-(4-isopropylphenyl)-N-(1-(3-methyl-1-(2,2,2-trifluoroethyl)-1H-pyrazolo[3,4-c]pyridin-5-yl)ethyl)acetamide]
827	C[C@@H](NC(=O)Cc1ccc(C(F)(F)F)cc1)c1cc2cnn(CC(C)(F)F)c2cn1 [Example 40, (R)—N-(1-(1-(2,2-difluoropropyl)-1H-pyrazolo[3,4-c]Pyridin-5-yl)ethyl)-2-(4-(trifluoromethyl)phenyl)acetamide]
806	Cc1c2ccc(CC(=O)N[C@H](C)c3cc4cnn(CC(F)(F)F)c4cn3)cc2nn1C [Example 46, (R)-2-(2,3-dimethyl-2H-indazol-6-yl)-N-(1-(1-(2,2,2-trifluoroethyl)-1H-pyrazolo[3,4-c]pyridin-5-yl)ethyl)acetamide]
89	C[C@@H](NC(=O)Cc1ccc(C2CC2)cc1)c1cc2cnn(CC(F)(F)F)c2cn1 [Example 28, (R)-2-(4-cyclopropylphenyl)-N-(1-(1-(2,2,2-trifluoroethyl)-1H-pyrazolo[3,4-c]pyridin-5-yl)ethyl)acetamide]
> 10000	C[C@@H](NC(=O)Cc1ccc(C2CC2)cn1)c1cc2cnn(CC(F)(F)F)c2cn1 [Example 34, (R)-2-(5-cyclopropylpyridin-2-yl)-N-(1-(1-(2,2,2-trifluoroethyl)-1H-pyrazolo[3,4-c]pyridin-5-yl)ethyl)acetamide]
850	C[C@@H](NC(=O)Cc1ccc2c(c1)c(C#N)cn2C)c1cc2cnn(CC(F)(F)F)c2cn1 [Example 50, (R)-2-(3-cyano-1-methyl-1H-indol-5-yl)-N-(1-(1-(2,2,2-trifluoroethyl)-1H-pyrazolo[3,4-c]pyridin-5-yl)ethyl)acetamide]
873	C[C@@H](NC(=O)Cc1cnc(C2CC2)c(Cl)c1)c1cc2cnn(CC(F)(F)F)c2cn1 [Example 36, (R)-2-(5-chloro-6-cyclopropylpyridin-3-yl)-N-(1-(1-(2,2,2-trifluoroethyl)-1H-pyrazolo[3,4-c]pyridin-5-yl)ethyl)acetamide]
2590	C[C@@H](NC(=O)Cc1ccc(C2CC2)nc1)c1cc2cnn(CC(F)(F)F)c2cn1 [Example 25, (R)-2-(6-cyclopropylpyridin-3-yl)-N-(1-(1-(2,2,2-trifluoroethyl)-1H-pyrazolo[3,4-c]pyridin-5-yl)ethyl)acetamide]
